Test results: paper PMC10411625, “Rationally designed stapled peptides allosterically inhibit PTBP1–RNA-binding” (Chemical Science, 2023)

Legend:
[1] = Helicity by circular dichroism spectroscopy; type: physicochemical; conditions: 50 µM peptide, 20 mM sodium phosphate pH 8.0, 10 mM NaF, 20 °C, triplicates, JASCO multivariate secondary structure analysis
Text: For the initial design we used the i, i + 4 strategy where two (S)-pentenyl alanines (S5) were introduced in positions with three other amino acids in between. We picked three different amino acid pairs to replace with the S5 amino acids based on their orientation as observed in the NMR structures (P-2, P-3 and P-4, Fig. 2B and C).[25] To prevent the staple from disturbing the interaction between the ligand and the protein we chose positions facing away from the binding site forming the pairs Ala145/Ala149, Gln148/Gln152, and Ala149/Ala153. The three peptides were synthesized on Rink amide resin and the linear peptides were treated with a Grubbs catalyst to connect the S5 residues. To avoid a mixture of E/Z-diastereomers we reduced the alkene in the linker of the staple using a solution phase hydrogenation protocol.[43] The linear equivalent P-1 was synthesized for comparison but had to be extended on the C-terminus with an arginine residue to improve its solubility. The C-terminus is away from the binding surface and this modification was therefore not expected to have an impact on the binding affinity. The peptides were tested in a competitive fluorescence polarization assay using the RRM12 construct and RNA-2 (Fig. 2C and S2 ^†). […] As the staple is expected to stabilize the α-helical conformation we used circular dichroism (CD) spectroscopy to evaluate the helicity of the peptides. […] It is possible that although P-4 was more helical than P-3, the replacement of Gln148 with the hydrophobic linker disturbed the interaction since the side chain amide potentially interacts with the RRM1 surface. […]
(§1) performed in FP bufferPTBP1. […]
(§2) serially diluted in the same buffer. […]
(§3) a final concentration of 10 nM probe. […]
(§4) the settings mentioned previously.
(§5) Fluorescence polarization assay with SRSF1
(§6) Fluorescence polarization was
(§7) Fluorescence polarization assay with hnRNPA2/B1
(§8) For the competitive assay 10 nM
(§9) Microscale thermophoresis […]
(§10) afterwards serially diluted into FP buffer.
(§11) The data was evaluated at […]
(§12) experiments were performed in duplicates.
(§13) Circular Dichroism Spectroscopy […]

HEK293T cells = assay: Cell viability assay (CellTiterGlo 2.0); type: cell-based; conditions: CellTiterGlo 2.0, concentrations of up to 300 μM
Procedure: protein was buffer exchanged into CD-Buffer using spin columns and measurements were performed in this buffer under similar conditions with protein concentrations of 0.2 mg/ml.
Co-Crystallisation of RRM1Δα3 with P-6
Protein construct RRM1Δα3 was purified using the protocol discussed above and concentrated to 14 mg/ml. P-6 was dissolved in SEC buffer and added in a 1.5 molar excess to the protein solution. After removal of particles by centrifugation (20000 x g, 4 °C, 10 min) sitting-drop experiments were set up by adding 200 nl of protein/ligand to 100 nl reservoir solution (1.89 M (NH4)2SO4, 0.1 M HEPES pH 6.86, 2% v/v PEG400) in MRC 3-drop plates. Sealed plates were incubated at 20 °C using a Formulatrix RockImager and crystals were obtained after several days. Prior to flash-freezing the crystals were cryo conserved by adding 0.5 µl reservoir solution containing 20% v/v glycerol to the drop.
X-ray data collection and processing
X-ray diffraction data was collected at X10SA (PXII) at Swiss Light Source. […]
HEK293T cells were seeded at 30000 cells/well in 75 µl DMEM supplemented with 10% FBS with 1x Pen-Strep (Gibco) in 96-well plates on the day prior the experiment. […] Cell viability was read out using CellTiterGlo 2.0 (Promega) according to the manufacturers protocol. Viability was calculated in % of signal normalized to the DMSO controls.

SRSF1 = biological target: T1, SRSF1 (Homo sapiens, UniProt Q07955); assay: Competitive fluorescence polarization assay, SRSF1 and RNA-S; type: binding; conditions: Fig. 3C; competitive FP, 400 nM SRSF1, 1 nM Cy5-labeled RNA-S, pH 7.0; read-out: P-6 Ki, construct SRSF1
T1 construct: SRSF1-RRM12 (1-195); His tag (cleaved yes); made in house; host or cells: E. coli BL21 (DE3)
Text: The RRM domain is the most commonly occurring RNA-binding domain in the proteome making it challenging to find selective inhibitors.[23,46] Although various ligands have been described, their selectivity is rarely investigated, with an exception for the Musashi-1 inhibitor Ro 08-2750.[47–58] To investigate whether P-6 has an effect on the RNA-binding of other dual RRM containing proteins, we evaluated its inhibitory potency against another hnRNP protein (hnRNP A2/B1) as well as a splicing factor from the SR-protein class (SRSF1).[1] We evaluated P-6 in competitive fluorescence polarization assays using previously described RNAs recognized by these proteins.[59] […]
as §1, §2, §3, §4, §5, §6, §7, §8, §9, §10, §11, §12, §13
secondary structure analysis with a reference data set. For experiments with PTBP1 constructs the […]

T1 sequence (Q07955 1-195, species assumed): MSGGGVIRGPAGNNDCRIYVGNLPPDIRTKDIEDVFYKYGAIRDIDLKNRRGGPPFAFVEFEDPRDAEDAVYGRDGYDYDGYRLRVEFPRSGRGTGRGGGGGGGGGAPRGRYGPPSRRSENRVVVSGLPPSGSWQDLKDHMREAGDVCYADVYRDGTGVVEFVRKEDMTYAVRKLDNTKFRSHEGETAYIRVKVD

## CC(=O)N[C@@H](CC(N)=O)C(=O)N[C@@H](CCC(N)=O)C(=O)N[C@@]1(C)CCCCCCCC[C@@](C)(C(=O)N[C@@H](C)C(=O)N[C@@H](CC(C)C)C(=O)N[C@@H](CCC(N)=O)C(=O)N[C@@H](C)C(=O)N[C@H](C(=O)N[C@@H](CC(N)=O)C(N)=O)C(C)C)NC(=O)[C@H](CCC(N)=O)NC(=O)[C@H](C)NC(=O)[C@H](CCCNC(=N)N)NC1=O [Peptide P-2]
[1]
  Helicity by CD spectroscopy: 92.3%

## CC(=O)N[C@@H](CC(N)=O)C(=O)N[C@@H](CCC(N)=O)C(=O)N[C@@]1(C)CCCC=CCCCC2(CCCC=CCCC[C@](C)(C(=O)N[C@H](C(=O)N[C@@H](CC(N)=O)C(N)=O)C(C)C)NC(=O)[C@H](CCC(N)=O)NC(=O)[C@H](CC(C)C)NC(=O)[C@H](C)NC2=O)NC(=O)[C@H](CCC(N)=O)NC(=O)[C@H](C)NC(=O)[C@H](CCCNC(=N)N)NC1=O (stereo partly drawn) [Peptide P-6]
HEK293T cells
  cell viability (in words): not affected
SRSF1
  Ki: > 1000 µM
